Results: patent publication US7127357B1, “Crystal structure of WW domains and methods of use thereof” (The Salk Institute for Biological Studies, priority 2000, dated 2006)
Non-standard residues stand in square brackets, D forms with d. Residues, ends and D or L forms follow the SMILES beside them. *: point of attachment. X1 = CN(C)c1ccc2c(c1)Oc1cc(N(C)C)ccc1C21OC(=O)c2cc(NC(=S)*)ccc21; pT = C[C@@H](OP(=O)(O)O)[C@H](N)C(=O)O; pS = N[C@@H](COP(=O)(O)O)C(=O)O

How the values were obtained:
Pin1 PPIase domain = target: T1, Pin1 PPIase domain (Homo sapiens, UniProt Q13526); experiment: Fluorescence anisotropy binding of rhodamine-labeled peptides to isolated Pin1 PPIase domain
T1 construct: the PPIase domain includes residues 50–163 of Pin1
T1 sequence (Q13526 50-163): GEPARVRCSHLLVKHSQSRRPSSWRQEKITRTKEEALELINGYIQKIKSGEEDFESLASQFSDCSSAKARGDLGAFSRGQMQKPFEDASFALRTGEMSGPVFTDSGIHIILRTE
Method: Protein purification and crystallography. His8-tagged Pin1 was expressed and purified by Ni^+2-chelation chromatography, the histidine tag was removed by thrombin digestion, and the protein purified as described in Ranganathan et al., Cell 89:875–886, 1997. All site-directed mutants were constructed using the QuikChange (Stratagene) protocol and purified like wild type Pin1. Crystals of the Pin1-YpSPTpSPS complex were grown in hanging drops at 4° C. by mixing 1.0 μl of the Pin1-peptide complex with 1.0 μl of a reservoir solution containing 100 mM MOPSO-Na^+ (pH 7.0), 28% (v/v) PEG 8000, 2 mM DTT, stabilized in 100 mM MOPSO-Na^+ (pH 7.0), 25% (v/v) PEG 8000, 20% (v/v) glycerol, 1 mM DTT, and rapidly frozen in a 100 K stream of nitrogen gas. A native data set extending to 1.84 Å resolution was collected at the Stanford Synchrotron Radiation Laboratory, beamline 9-1 (λ=0.98 Å). Data were processed with DENZO and scaled with […] (Otwinowski, Z., Minor, W. Meth. Enzymol. 276:307–326, 1997). The crystals contain one Pin1-peptide complex per asymmetric unit and belong to space group P212121 (a=35.27 Å, b=43.90 Å, c=124.66 Å, α=β=γ=90°). The final data set with an overall R merge of 6.2% (R merge=33.7% in the highest resolution shell) is 97.3% complete (98.2% in the highest resolution shell) for the resolution range of 62.02 Å to 1.84 Å. The structure of the Pin1-YpSPTpSPS repeat complex was solved by molecular replacement with AMORE (Navaza, J. Acta Crystallogr. A 50:157–163, 1994) using the Pin1 monomer as a starting model (Ranganathan et al., Cell 89:875–886, 1997). The resulting model was then positionally refined against all the data between 62.02 Å and 1.84 Å using the default bulk solvent model in CNS with maximum likelihood targets (Brunger et al., Acta Crystallogr. D 54:905–921, 1998). After refining the rebuilt model, water molecules were added automatically using CNS and edited manually in O. The final positional refinement converged to a crystallographic R factor of 24% (R free=27%) for all data (17107 reflections) between 62.02 Å and 1.84 Å. This model consists of residues 1 to 38 and 51 to 163 of human Pin1, the entire phosphopeptide, and 151 water molecules. Model quality was checked with PROCHECK (Laskowski et al., J. Appl. Crystallogr. 26:283–291, 1993). A total of 91.7% of the residues are in the most favored regions of the Ramachandran plot, 6.8% in the additional allowed region, and 0.8% in the generously allowed region. Glu-5 borders the generously allowed region.
Binding Analysis. […] These peptides were derived from proteins previously shown to interact with Pin1. While the set of peptides examined is limited, a consensus emerges from comparison of the highest affinity interactions. Lyophilized peptides were dissolved in 25 mM HEPES-Na^+ (pH 7.5), 100 mM NaCl, 1 mM DTT and stored for short periods of time at −20° C. […] Fluorescence data were collected on a PTI Alphascan spectrofluorimeter (Photon Technology Instruments, Santa Clara, Calif.). Dissociation equilibrium constants for Pin1-peptide complexes were determined by measuring the change in fluorescence anisotropy of a set of peptide solutions at constant concentration of peptide each of which contained varied concentrations of Pin1 using the procedure described previously (Vinson et al., Biochemistry 37:10871–10880, 1998). The core binding element determined from this group of peptides is PXpSP, where X cannot be Gly. […]

Pin1 = target: T2, Pin1 (Homo sapiens, UniProt Q13526); experiment: Fluorescence anisotropy binding of rhodamine-labeled peptides to full length Pin1; settings: errors are deviations from theoretical binding isotherms
T2 construct: His8 (cleaved yes); made in house; host or cells: E. coli
T2 sequence (Q13526 whole entry): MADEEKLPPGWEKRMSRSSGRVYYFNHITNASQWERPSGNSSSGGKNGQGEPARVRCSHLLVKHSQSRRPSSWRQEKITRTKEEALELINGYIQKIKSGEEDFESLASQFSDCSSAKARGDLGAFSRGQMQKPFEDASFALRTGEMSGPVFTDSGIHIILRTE
Method: (§1) Protein purification and crystallography. His8-tagged Pin1 was expressed and purified by Ni^+2-chelation chromatography, the histidine tag was removed by thrombin digestion, and the protein purified as described in Ranganathan et al., Cell 89:875–886, 1997. All site-directed mutants were constructed using the QuikChange (Stratagene) protocol and purified like wild type Pin1. Crystals of the Pin1-YpSPTpSPS complex were grown in hanging drops at 4° C. by mixing 1.0 μl of the Pin1-peptide complex with 1.0 μl of a reservoir solution containing 100 mM MOPSO-Na^+ (pH 7.0), 28% (v/v) PEG 8000, 2 mM DTT, stabilized in 100 mM MOPSO-Na^+ (pH 7.0), 25% (v/v) PEG 8000, 20% (v/v) glycerol, 1 mM DTT, and rapidly frozen in a 100 K stream of nitrogen gas. […]
(§2) Binding Analysis. […] Fluorescence data were collected on a PTI Alphascan spectrofluorimeter (Photon Technology Instruments, Santa Clara, Calif.). Dissociation equilibrium constants for Pin1-peptide complexes were determined by measuring the change in fluorescence anisotropy of a set of peptide solutions at constant concentration of peptide each of which contained varied concentrations of Pin1 using the procedure described previously (Vinson et al., Biochemistry 37:10871–10880, 1998). The core binding element determined from this group of peptides is PXpSP, where X cannot be Gly. […]

Pin1 WW domain = target: T3, Pin1 WW domain (Homo sapiens, UniProt Q13526); experiment: Fluorescence anisotropy binding of rhodamine-labeled peptides to isolated Pin1 WW domain
T3 construct: The WW domain of Pin1 includes residues 1 to 39
T3 sequence (Q13526 1-39 limits assumed): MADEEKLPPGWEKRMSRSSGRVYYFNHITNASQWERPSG
Method: as §1, §2

| Molecule | Dissociation equilibrium constants for Pin1-peptide complexes, PPIase (Pin1 PPIase domain) | Dissociation equilibrium constants for Pin1-peptide complexes, Pin1 (Pin1) | Dissociation equilibrium constants for Pin1-peptide complexes, WW (Pin1 WW domain) |
| --- | --- | --- | --- |
| C[C@H](NC(=O)[C@@H]1CCCN1C(=O)[C@@H]1CCCN1C(=S)Nc1ccc2c(c1)C(=O)OC21c2ccc(N(C)C)cc2Oc2cc(N(C)C)ccc21)C(=O)N[C@H](C(=O)N1CCC[C@H]1C(=O)N1CCC[C@H]1C(=O)O)[C@@H](C)OP(=O)(O)O [PPApTPP (Myt1-T412), PPApTPP] (X1-PPA[pT]PP-OH) | n.b. |  |  |
| CN(C)c1ccc2c(c1)Oc1cc(N(C)C)ccc1C21OC(=O)c2cc(NC(=S)N3CCC[C@H]3C(=O)N3CCC[C@H]3C(=O)NCC(=O)N[C@@H](COP(=O)(O)O)C(=O)N3CCC[C@H]3C(=O)N3CCC[C@H]3C(=O)O)ccc21 [PPGpSPP (Myt1-S416), PPGpSPP] (X1-PPG[pS]PP-OH) | n.b. |  |  |
| C[C@@H](O)[C@H](NC(=O)[C@H](CO)NC(=S)Nc1ccc2c(c1)C(=O)OC21c2ccc(N(C)C)cc2Oc2cc(N(C)C)ccc21)C(=O)N[C@@H](CO)C(=O)N[C@H](C(=O)N1CCC[C@H]1C(=O)N[C@@H](CCCNC(=N)N)C(=O)O)[C@@H](C)OP(=O)(O)O [STSpTPR (Myt1-T455), STSpTPR] (X1-STS[pT]PR-OH) | n.b. |  |  |
| CC(C)[C@H](NC(=O)[C@@H]1CCCN1C(=O)[C@@H](NC(=O)[C@H](CCCNC(=N)N)NC(=O)[C@@H]1CCCN1C(=O)[C@@H](NC(=S)Nc1ccc2c(c1)C(=O)OC21c2ccc(N(C)C)cc2Oc2cc(N(C)C)ccc21)C(C)C)[C@@H](C)OP(=O)(O)O)C(=O)O [VPRpTPV (Cdc25c-T48), VPRpTPV] (X1-VPR[pT]PV-OH) | n.b. |  |  |
| YSPTSPS [YSPTSPS (CTD), unphosphorylated heptad repeat of the C-terminal domain of RNA Polymerase II, rhodamine-labeled] | n.b. | n.b. | n.b. |
